Holding throughout (assay): Binding inhibition of 125I-somatostatin, CHO cell membrane fraction
Test [1] deals with T1, human somatostatin receptor SSTR5 (Homo sapiens, UniProt P35346).
T1 construct: expressed in transfected cells; host or cells: CHO (dhfr-) cells, strain SSTR5-3-2-4 (also printed SSTR5-32-4)
To be noted: 125I-somatostatin binding, 25° C. for 60 minutes, read-out: Activities for human somatostatin receptor (IC50 value) SSTR5. On the procedure: (§1) A human somatostatin receptor expression CHO cell strain, SSTR1-8-3, SSTR2-HS5-9, SSTR3-15-19, SSTR4-1-2 or SSTR5-32-4 (10^9), was suspended in a phosphate buffered saline containing 5mM of EDTA (PBS-EDTA). The suspension was centrifuged. To the cell pellet was added 10 ml of a homogenation buffer solution for cells (10 mM NaHCO3, 5 mM EDTA, pH=7.5). The mixture was homogenized by a Politron homogenizer and centrifuged at 400×g for 15 minutes. The supernatant obtained was farther centrifuged at 100,000×g for an hour to obtain a precipitate of the membrane fraction. The precipitate was suspended in 2 ml of a buffer solution for assay ([…], 0.1% of BSA (bovine serum albumin) and […], 1 μ/ml of pepstatin, 20 μg/ml of leupeptin, 10 μg/ml of phosphoramide, pH=7.5). The suspension was centrifuged at […] for an hour. The membrane fraction recovered as precipitate was suspended again in 20 ml of buffer solution for assay. The suspension was placed in tubes and stored at −80° C. The suspension was thawed when used, and used at every use.
(§2) The membrane fraction prepared in Example 1 was diluted with a buffer solution for assay to adjust the concentration to 3 μg/ml. The diluate was placed in tubes each in quantity of 173 μl. To this were simultaneously added 2 μl of a solution of a compound in DMSO and 25μl of a 200pM radioisotope-labeled somatostatin (^125I-somatostatin: Amersham) solution. For measurement of the maximum binding, a reaction mixture added with 2 μl of DMSO and 25μl of a 200pM ^125I-somatostatin solution was prepared. For measurement of non-specific binding, a reaction mixture added with 2 μl of a 100 μM somatostatin solution diluted in DMSO and 25 μl of a 200pM ^125I-somatostatin solution was prepared at the same time. The mixtures were allowed to react at 25° C. for 60 minutes. Then, the reaction mixture was filtered by aspiration using a GF/B glass fiber filter paper (Whatman) treated with polyethylenimine. After filtration, the radioactivity of 125I-somatostatin remaining on the filter paper was measured by a γ-counter.
(§3) The binding rate (%) of each compound was calculated by the formula: […]
(§4) (where PBM: Percent maximum Binding, B: radioactivity when a compound was added, Bo: maximum binding radioactivity, NSB: non-specific binding radioactivity). The binding rates were calculated by changing the concentrations of the compound to obtain the 50% inhibiting concentration of the compound (IC50 value) by the Hil l plots.
(§5) The activities (IC50 value, μM) of the compounds for each human somatostatin receptor obtained by the above method are shown in the following Table 5.

The target of test [2] is T2, human somatostatin receptor SSTR3 (Homo sapiens, UniProt P32745).
T2 construct: expressed in transfected cells; host or cells: CHO (dhfr-) cells, strain SSTR3-15-19
Particulars: 125I-somatostatin binding, 25° C. for 60 minutes, read-out: Activities for human somatostatin receptor (IC50 value) SSTR3. On the procedure:
as §1, §2, §3, §4, §5

In test [3] the target is T3, human somatostatin receptor SSTR4 (Homo sapiens, UniProt P31391).
T3 construct: expressed in transfected cells; host or cells: CHO (dhfr-) cells, strain SSTR4-1-2
Particulars: 125I-somatostatin binding, 25° C. for 60 minutes, read-out: Activities for human somatostatin receptor (IC50 value) SSTR4. On the procedure:
as §1, §2, §3, §4, §5

Test [4] concerns the target T4, human somatostatin receptor SSTR1 (Homo sapiens, UniProt P30872).
T4 construct: expressed in transfected cells; host or cells: CHO (dhfr-) cells, strain SSTR1-8-3
To be noted: 125I-somatostatin binding, 25° C. for 60 minutes, read-out: Activities for human somatostatin receptor (IC50 value) SSTR1. On the procedure: as §1, §2, §3, §4, §5

For test [5], the target named is T5, human somatostatin receptor SSTR2 (Homo sapiens, UniProt P30874).
T5 construct: expressed in transfected cells; host or cells: CHO (dhfr-) cells, strain SSTR2-HS5-9
Particulars: 125I-somatostatin binding, 25° C. for 60 minutes, read-out: Activities for human somatostatin receptor (IC50 value) SSTR2. Here is the method:
as §1, §2, §3, §4, §5

As a reminder, the IC50 is the concentration at which inhibition is half-maximal.

Where a name gives a salt, the structure may show the parent alone. A value given as a limit tells only on which side of the number the result lay.

T3 sequence (P31391 whole entry): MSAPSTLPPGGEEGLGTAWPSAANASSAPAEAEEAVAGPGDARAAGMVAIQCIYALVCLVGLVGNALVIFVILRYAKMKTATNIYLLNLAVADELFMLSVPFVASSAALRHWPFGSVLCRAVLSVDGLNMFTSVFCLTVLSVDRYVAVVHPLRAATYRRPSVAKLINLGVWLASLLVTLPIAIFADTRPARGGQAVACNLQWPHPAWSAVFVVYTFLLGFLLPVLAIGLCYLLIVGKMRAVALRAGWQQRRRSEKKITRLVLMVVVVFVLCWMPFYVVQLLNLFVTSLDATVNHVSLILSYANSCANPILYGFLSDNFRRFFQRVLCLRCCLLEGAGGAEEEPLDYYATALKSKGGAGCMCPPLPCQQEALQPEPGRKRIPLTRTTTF
T5 sequence (P30874 whole entry): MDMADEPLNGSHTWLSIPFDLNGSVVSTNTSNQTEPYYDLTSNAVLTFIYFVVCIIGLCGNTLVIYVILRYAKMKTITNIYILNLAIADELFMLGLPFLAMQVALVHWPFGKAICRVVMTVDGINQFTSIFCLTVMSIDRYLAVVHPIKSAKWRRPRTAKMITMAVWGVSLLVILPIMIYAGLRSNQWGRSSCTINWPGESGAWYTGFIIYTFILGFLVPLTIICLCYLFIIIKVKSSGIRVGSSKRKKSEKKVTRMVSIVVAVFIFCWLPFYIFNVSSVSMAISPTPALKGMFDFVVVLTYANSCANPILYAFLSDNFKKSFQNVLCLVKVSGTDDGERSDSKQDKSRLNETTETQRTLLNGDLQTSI
T1 sequence (P35346 whole entry): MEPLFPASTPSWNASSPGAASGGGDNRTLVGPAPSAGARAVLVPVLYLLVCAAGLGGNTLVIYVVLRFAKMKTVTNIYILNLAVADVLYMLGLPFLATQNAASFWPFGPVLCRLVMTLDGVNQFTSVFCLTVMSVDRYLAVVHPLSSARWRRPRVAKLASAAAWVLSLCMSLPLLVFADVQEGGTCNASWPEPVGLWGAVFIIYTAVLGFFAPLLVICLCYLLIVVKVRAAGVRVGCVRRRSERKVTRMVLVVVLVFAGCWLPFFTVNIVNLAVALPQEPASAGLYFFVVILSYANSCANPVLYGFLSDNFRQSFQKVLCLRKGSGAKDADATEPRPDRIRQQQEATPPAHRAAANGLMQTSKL
T4 sequence (P30872 whole entry): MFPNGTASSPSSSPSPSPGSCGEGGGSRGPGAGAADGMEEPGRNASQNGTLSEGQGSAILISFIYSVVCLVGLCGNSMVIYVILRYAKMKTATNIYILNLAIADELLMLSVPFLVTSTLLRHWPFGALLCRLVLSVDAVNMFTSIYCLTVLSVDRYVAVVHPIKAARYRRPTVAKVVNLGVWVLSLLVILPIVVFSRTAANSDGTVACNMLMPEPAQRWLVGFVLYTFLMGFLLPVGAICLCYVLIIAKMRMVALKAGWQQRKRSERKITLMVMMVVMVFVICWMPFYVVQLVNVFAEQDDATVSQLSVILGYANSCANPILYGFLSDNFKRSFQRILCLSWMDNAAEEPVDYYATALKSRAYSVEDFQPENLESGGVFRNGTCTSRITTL
T2 sequence (P32745 whole entry): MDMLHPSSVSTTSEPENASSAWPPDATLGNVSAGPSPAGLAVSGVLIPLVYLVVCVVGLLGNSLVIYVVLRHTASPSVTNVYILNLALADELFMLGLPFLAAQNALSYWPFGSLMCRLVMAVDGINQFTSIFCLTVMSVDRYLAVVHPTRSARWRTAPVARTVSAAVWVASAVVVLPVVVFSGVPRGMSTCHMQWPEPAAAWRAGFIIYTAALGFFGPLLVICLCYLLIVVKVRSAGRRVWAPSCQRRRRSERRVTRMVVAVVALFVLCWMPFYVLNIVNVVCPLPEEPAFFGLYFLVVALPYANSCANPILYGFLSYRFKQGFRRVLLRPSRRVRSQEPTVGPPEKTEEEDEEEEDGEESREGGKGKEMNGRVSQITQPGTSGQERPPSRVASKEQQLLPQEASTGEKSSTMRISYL

Consider `CC(C)(C)CN1C(=O)[C@H](CC(=O)NCc2ccccc2F)O[C@@H](c2cccc(CN)c2)c2cc(Cl)ccc21` [Example 25, (3S,5S)-N-(2-fluorobenzyl)-5-(3-aminomethylphenyl)-7-chloro-1-neopentyl-2-oxo-1,2,3,5-tetrahydro-4,1-benzoxazepine-3-acetamide•monohydrochloride], for which the IC50 came to 0.007 µM in test [1]; 0.3 µM in test [2]; 4 µM in test [3]; 8 µM in test [4]; 6 µM in test [5].

For `CC(C)(C)CN1C(=O)[C@@H](CC(=O)NCc2ccccc2F)O[C@H](c2cccc(CN)c2)c2cc(Cl)ccc21` [Example 26, (3R,5R)-N-(2-fluorobenzyl)-5-(3-aminomethylphenyl)-7-chloro-1-neopentyl-2-oxo-1,2,3,5-tetrahydro-4,1-benzoxazepine-3-acetamide•monohydrochloride], the IC50 was 0.6 µM in test [1]; 7 µM in test [2]; 4 µM in test [3]; 10 µM in test [4]; > 10 µM in test [5].

In the case of `NCc1ccc(C2OC(CC(=O)NCc3ccccc3F)C(=O)N(Cc3ccc(-c4ccccc4)cc3)c3ccc(Cl)cc32)cc1` (stereo not drawn) [Example 87, 3,5-Trans-N-(2-fluorobenzyl)-5-(4-aminomethylphenyl)-1-(4-biphenylmethyl)-7-chloro-2-oxo-1,2,3,5-tetrahydro-4,1-benzoxazepine-3-acetamide•monohydrochloride], the IC50 in test [1] worked out at 0.001 µM; in test [2], 0.02 µM; in test [3], 0.3 µM; in test [4], 0.8 µM; in test [5] it was 0.8 µM.

With `COc1ccc(CN2C(=O)C(CC(=O)NCc3ccccc3F)OC(c3ccc(CN)s3)c3cc(Cl)ccc32)cc1` (stereo not drawn) [Example 91, 3,5-Trans-N-(2-fluorobenzyl)-5-(2-aminomethylthiophen-5-yl)-7-chloro-1-(4-methoxybenzyl)-2-oxo-1,2,3,5-tetrahydro-4,1-benzoxazepine-3-acetamide•monohydrochloride], the IC50 was 0.007 µM in test [1]; 0.04 µM in test [2]; 1 µM in test [3]; > 1 µM in test [4]; > 1 µM in test [5].

For `CC(C)(N)c1cccc(C2OC(CC(=O)NCc3ccccc3F)C(=O)N(Cc3ccc(-c4ccccc4)cc3)c3ccc(Cl)cc32)c1` (stereo not drawn) [Example 93, 3,5-Trans-N-(2-fluorobenzyl)-5-[3-[(1-amino-1-methyl)ethyl]phenyl]-1-(4-biphenylmethyl)-7-chloro-2-oxo-1,2,3,5-tetrahydro-4,1-benzoxazepine-3-acetamide•monohydrochloride], the IC50 in test [1] was determined as 0.009 µM; in test [2], 0.004 µM; in test [3] it was 0.2 µM; in test [4], 0.9 µM; in test [5], 0.5 µM.

For the origin of these results see patent US6352982B1, “4,1-benzoxazepines, their analogues, and their use as somatostatin agonists” (Takeda Chemical Industries, Ltd., priority 1997, dated 2002).
